Target: ATP-dependent translocase ABCB1 (Homo sapiens, UniProt P08183)
Assay: TP_TRANSPORTER: cell accumulation in K562/ADR cells
Type: functional, cell-based

Sequence of ATP-dependent translocase ABCB1 (P08183 whole entry): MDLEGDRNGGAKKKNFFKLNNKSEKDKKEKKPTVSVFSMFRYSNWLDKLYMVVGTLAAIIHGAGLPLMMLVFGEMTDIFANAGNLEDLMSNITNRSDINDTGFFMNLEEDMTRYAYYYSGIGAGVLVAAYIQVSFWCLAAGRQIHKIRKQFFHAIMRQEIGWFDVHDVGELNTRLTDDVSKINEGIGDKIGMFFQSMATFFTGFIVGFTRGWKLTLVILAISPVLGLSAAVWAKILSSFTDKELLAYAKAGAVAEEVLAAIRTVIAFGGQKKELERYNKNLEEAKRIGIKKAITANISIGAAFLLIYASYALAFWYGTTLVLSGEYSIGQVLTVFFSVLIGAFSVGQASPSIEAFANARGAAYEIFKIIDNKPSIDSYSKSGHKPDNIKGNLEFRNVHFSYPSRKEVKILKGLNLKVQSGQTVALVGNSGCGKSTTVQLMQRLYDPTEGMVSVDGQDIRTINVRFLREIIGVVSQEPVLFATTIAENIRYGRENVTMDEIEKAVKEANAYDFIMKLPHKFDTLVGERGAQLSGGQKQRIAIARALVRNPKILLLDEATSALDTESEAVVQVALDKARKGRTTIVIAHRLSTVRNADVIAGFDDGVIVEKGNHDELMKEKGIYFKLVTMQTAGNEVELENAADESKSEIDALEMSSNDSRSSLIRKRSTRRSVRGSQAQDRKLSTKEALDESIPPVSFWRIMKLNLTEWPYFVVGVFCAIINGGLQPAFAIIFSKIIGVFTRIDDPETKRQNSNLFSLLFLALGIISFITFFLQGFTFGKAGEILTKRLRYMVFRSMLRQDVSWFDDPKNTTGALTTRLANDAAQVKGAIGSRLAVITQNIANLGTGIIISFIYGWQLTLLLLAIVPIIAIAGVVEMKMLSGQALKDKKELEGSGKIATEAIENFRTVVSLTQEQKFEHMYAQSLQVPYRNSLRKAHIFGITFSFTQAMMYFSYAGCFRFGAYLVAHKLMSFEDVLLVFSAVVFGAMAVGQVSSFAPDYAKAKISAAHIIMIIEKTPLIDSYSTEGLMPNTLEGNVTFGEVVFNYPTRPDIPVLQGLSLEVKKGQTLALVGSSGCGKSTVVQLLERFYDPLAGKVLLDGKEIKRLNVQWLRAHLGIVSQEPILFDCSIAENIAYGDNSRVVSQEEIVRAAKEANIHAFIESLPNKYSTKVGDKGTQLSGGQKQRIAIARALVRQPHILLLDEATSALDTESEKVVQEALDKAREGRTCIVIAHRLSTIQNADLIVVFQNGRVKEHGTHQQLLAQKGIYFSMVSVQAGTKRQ

- Activity: substrate [+]
Structure (SMILES): C[C@H]1COc2c(C3(N)CC3)c(F)cc3c(=O)c(C(=O)O)cn1c23 [PAZUFLOXACIN]

From ChEMBL document CHEMBL2073995, “Possible involvement of P-glycoprotein in renal excretion of pazufloxacin in rats” (Eur J Pharmacol, 2004)
